According to US12708673B2, “Methods and compositions related to peptides and proteins with c-terminal elements” (Sanford Burnham Prebys Medical Discovery Institute, priority 2008, dated 2026):

Legend:
[1] = system: primary cells derived from normal mouse organs; test: RPARPAR phage binding to primary cell suspensions of mouse organs at 4° C. ex vivo; format: cell-based; settings: panel of normal mouse organs
Experimental: FIG. 15A: Binding of RPARPAR (SEQ ID NO:2) phage to the cultured cells at 4° C. in vitro. FIG. 15B: Binding of RPARPAR (SEQ ID NO:2) phage to primary cell suspensions of mouse organs at 4° C. ex vivo. FIGS. 15C and 15D: Tissue distribution of intravenously injected RPARPAR (SEQ ID NO:2) phage after 20 minutes of circulation time. FIG. 15C: Phage was quantified by titration, tissue binding is expressed as fold G7 phage. Statistical analysis was performed by Student's t-test (c). n=3; error bars indicate s.d.; double asterisk, p<0.01, triple asterisk, p<0.001. FIG. 15D (panels d and e): Immunofluorescence localization of T7 phage (light coloring) in lung sections of mice injected intravenously with RPARPAR (SEQ ID NO:2) (d) or G7 (e) phage. Widespread immunoreactivity is present in the lungs of mice injected with RPARPAR (SEQ ID NO:2) (arrowheads in d) but not G7 (with occasional labeling seen in vessels, arrows in e). Scale bar: 50 μm.
Phage display. For in vivo phage display, mice were injected intravenously with 10^10 plaque-forming units (pfu) of T7 phage followed by perfusion of the circulatory system and determination of the bound phage in target organs by titration. For cell binding studies on cultured cells (in vitro display) and organ-derived cell suspensions (ex vivo display), the cells were incubated with 10^9 pfu of phage at 4° C., washed, lysed, and quantified by titration. […]

[2] = molecular target: T1, triple mutant NS346A-E348A-T349A NRP-1 (Homo sapiens, UniProt O14786, E348A/S346A/T349A); test: Phage binding to M21 melanoma cells transfected with NRP-1 binding pocket mutant; format: cell-based
T1 construct: expressed in transfected cells; host or cells: M21 melanoma cells, transient transfection with lipofectamine; site-directed mutant of the wild-type NRP-1 cDNA in pcDNA3.1(+)
Experimental: FIGS. 18A-18C show the identification and validation of NRP-1 as the CendR receptor. FIG. 18A: Affinity chromatography of proteins interacting with RPARPAR (SEQ ID NO: 2) peptide. PPC-1 tumor tissue was extracted with a 200 mM glucopyranoside buffer, and the extract was incubated with RPARPAR-coated (SEQ ID NO:2) beads, followed by extensive washes, and elution with 2 mM free RPARPAR (SEQ ID NO:2) peptide. Note appearance of a 130 kDa band, identified by mass spectroscopy as NRP-1, starting in the fraction 3 of the eluate. Upper panel—a silver stained gel, lower panel—an immunoblot with anti-NRP-1 antibody. FIG. 18B: Binding of RPARPAR (SEQ ID NO:2) phage to M21 melanoma cells transiently transfected with wild-type NRP-1 (NRP-1), triple mutant NS346A-E348A-T349A NRP-1 (Mutant NRP-1), or parental pcDNA3.1plasmid (Vector), and to non-transfected M21 cells. FIG. 18C: (c, d), Confocal immunofluorescence images of NRP-1 and RPARPAR (SEQ ID NO:2) T7 phage in PPC-1 cells incubated with phage at 37° C. for 40 minutes (c) and 3 hours (d). The phage and NRP-1 co-localize extensively, but there appears to be a progressive decrease in the overlap (arrowheads in c and d) and appearance of structures positive for the phage only (arrows, d). (e) Immunostaining and confocal imaging of RPARPAR (SEQ ID NO:2) phage and NRP-1 in M21 cells transiently transfected with NRP-1. […]

T1 sequence (O14786 22-923 S346A/E348A/T349A): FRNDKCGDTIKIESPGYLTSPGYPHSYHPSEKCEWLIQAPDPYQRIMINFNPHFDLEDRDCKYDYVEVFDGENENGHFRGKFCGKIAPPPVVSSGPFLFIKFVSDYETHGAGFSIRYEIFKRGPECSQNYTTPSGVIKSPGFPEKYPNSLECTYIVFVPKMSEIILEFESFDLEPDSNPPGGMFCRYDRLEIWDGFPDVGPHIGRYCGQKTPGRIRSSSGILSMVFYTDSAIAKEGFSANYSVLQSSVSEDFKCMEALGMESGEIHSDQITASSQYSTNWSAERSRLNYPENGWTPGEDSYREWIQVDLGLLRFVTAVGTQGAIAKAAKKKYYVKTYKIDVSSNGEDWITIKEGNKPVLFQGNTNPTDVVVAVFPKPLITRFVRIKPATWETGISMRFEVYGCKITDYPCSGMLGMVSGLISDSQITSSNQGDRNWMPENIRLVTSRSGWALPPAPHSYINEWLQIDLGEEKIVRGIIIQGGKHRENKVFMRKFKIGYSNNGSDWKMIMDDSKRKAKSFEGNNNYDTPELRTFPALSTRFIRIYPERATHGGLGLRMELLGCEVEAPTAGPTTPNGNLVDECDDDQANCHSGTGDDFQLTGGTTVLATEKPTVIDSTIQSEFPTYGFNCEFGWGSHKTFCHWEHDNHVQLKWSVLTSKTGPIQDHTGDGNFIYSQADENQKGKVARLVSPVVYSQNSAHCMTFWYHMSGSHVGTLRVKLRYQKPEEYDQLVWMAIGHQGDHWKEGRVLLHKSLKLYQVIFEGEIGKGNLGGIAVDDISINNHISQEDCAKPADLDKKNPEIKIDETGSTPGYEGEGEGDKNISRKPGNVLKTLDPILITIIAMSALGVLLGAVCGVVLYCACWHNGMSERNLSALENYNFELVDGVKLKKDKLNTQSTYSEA

Substance: RPARPAR [RPARPAR phage]
- Phage binding [1]: also bound
- Phage binding to M21 cells transfected with NRP-1 binding pocket mutant [2]: did not confer
